Results taken from publication PMC6345595 (American journal of clinical oncology, 2019).

Experiments:
[1] = Plasma pharmacokinetics of dovitinib, gemcitabine and capecitabine by LC/MS/MS; format: in vivo, human; conditions: for half-life: human, oral, 300 mg, median half-life (T1/2), dovitinib 300 mg
[2] = system: FGF23; test: Plasma FGF23 sandwich ELISA; format: in vivo, human; conditions: out of 5 patients with paired samples; during the first cycle; dovitinib 300 mg daily 5 days on and 2 days off with gemcitabine and capecitabine
[3] = system: basic FGF (bFGF); test: Plasma bFGF Quantikine ELISA; format: in vivo, human; conditions: 5 patients, baseline vs after 19 days of dovitinib 300 mg
[4] = system: VEGF; test: Plasma VEGF Quantikine ELISA; format: in vivo, human; conditions: 5 patients, baseline vs after 19 days of dovitinib 300 mg
[5] = human, in vivo
[6] = biological target: fibroblast growth factor receptors (FGFRs); conditions: read-out: IC50 against FGFRs; cited from earlier work
[7] = system: CYP 1A1/2; conditions: cited from earlier work
[8] = AUC 0–7.5 hours, Day 1, gemcitabine 1000 mg/m^2 intravenously, concurrently with dovitinib 300 mg and capecitabine, N=7
[9] = AUC 0–8 hours, Day 1, capecitabine 1300 mg/m^2 total daily oral dose divided twice a day, concurrently with dovitinib 300 mg and gemcitabine, N=7
[10] = Day 1, capecitabine 1300 mg/m^2 total daily oral dose divided twice a day, concurrently with dovitinib 300 mg and gemcitabine, plasma, N=5
[11] = Day 1, capecitabine 1300 mg/m^2 total daily oral dose divided twice a day, concurrently with dovitinib 300 mg and gemcitabine, plasma, N=7

In the case of Nc1ccn([C@@H]2O[C@H](CO)[C@@H](O)C2(F)F)c(=O)n1 [gemcitabine], the “AUC Max” value [1, 8] is reported as 12222 ng·h/mL and the “AUC Min” value [1, 8] is reported as 6370 ng·h/mL.
With CCCCCOC(=O)Nc1nc(=O)n([C@@H]2O[C@H](C)[C@@H](O)[C@H]2O)cc1F [capecitabine] the “AUC Max” value [1, 9] was 14439 ng·h/mL, the “AUC Min” value [1, 9] was 488 ng·h/mL and the “T1/2 Max” value [1, 10] was 4.07 h. For the same molecule, the “T1/2 Min” value [1, 10] was 0.68 h, the “Cmax Max” value [1, 11] was 30300 ng/mL and the “Cmax Min” value [1, 11] was 98.8 ng/mL.
With CN1CCN(c2ccc3nc(-c4c(N)c5c(F)cccc5[nH]c4=O)[nH]c3c2)CC1 [dovitinib] the “difference in dovitinib level between Day1 and 19 (autoinduction)” value ([1]; 300 mg daily dose on 5 days on and 2 days off schedule) was “did not observe significant difference”, the “accumulation following 3 weeks of dosing” value ([1]; dovitinib 300 mg dose, Day 1 vs Day 19 Cmax and AUC) was “slight accumulation” and the half-life ([1]; plasma, Day 1) was about 15 h. For the same molecule, the half-life ([1]; plasma, Day 19) was about 13 h, the “patients with increased plasma FGF23 level” value [2] was 4 patients and the “changes of bFGF plasma level” value [3] was “no observable trend”. For the same molecule, the “changes of VEGF plasma level” value [4] was “no observable trend”, the “patients with dose limiting toxicity (grade 3 colitis)” value ([5]; 1 cycle) was 1 and the “recommended dose for expansion / RP2D” value ([5]; po, 21 day) was 300 mg. For the same molecule, the IC50 [6] was under 10 nM and the metabolizing enzymes [7] was “mainly metabolized by CYP 1A1/2 and flavin-containing monooxygenase”.
